Test results published in patent publication US11649396B2, “Associative copolymers with hydrophobic quaternized (meth)acrylamide and (meth)acrylic acid derivatives” (BASF SE, priority 2018, dated 2023).

Test: Solubility tests of monomer 1 with auxiliary surfactants (additives) in the monomer solution
Assay type: physicochemical
Conditions: recipe 27 mol % sodium acrylate, 72.9 mol % acrylamide, 0.1 mol % 1; for Result (solubility of monomer 1 with additive): additive 2-20 eq relative to 1
Description: In order to solubilize monomer 1 the monomer was first dissolved in ethanol and then added to the monomer solution.
These tests were done in first instance with 0.1 mol % of 1.

Result (solubility of monomer 1 with additive) | Result (solubility of monomer 1 without additive) (no additive) | Compound
Not soluble** |  | CCCCCCCCCCCCCCC(O)C[N+](C)(C)CCO.[Cl-] (stereo not shown) [Dehyquart E-CA, (2-hydroxyethyl)(2-hydroxyhexadecyl)dimethylammonium chloride]
Not soluble** |  | CCCCCCCCCCCCN(CCC(=O)[O-])CCC(=O)O.[Na+] [Deriphat 160 C, Sodium-N-lauryl-R-iminodipropionate]
 | Not soluble** | C=C(C)C(=O)OCCC[N+](C)(C)CCCCCCCCCCCC [Monomer 1]

Compound | Result (solubility of monomer 1 with additive) | Result (solubility of monomer 1 without additive) (no additive)
CCCCCCCCCCCCCC[N+](C)(C)C.[Br-] [Monomer C14TAB, Tetradecyltrimethylammonium bromide, reference compound] | Not soluble** | 
